Key:
[1] = test system: liver ApoB mRNA; experiment: Liver ApoB mRNA knockdown by 1:57 SNALP with APOB siRNA in mice; format: in vivo, mouse; conditions: for ApoB knockdown: similar study with 1:57 SNALP containing C2-TLinDMA (Example 16); for ApoB silencing activity (liver ApoB mRNA): 6:1 L:D, IV 0.1 mg/kg
Method: Each SNALP formulation was administered by intravenous (IV) injection at 0.1 mg/kg into female Balb/c mice (n=3 per group). Plasma total cholesterol and/or liver ApoB mRNA levels were evaluated at 48 hours after SNALP administration. For dose response studies, SNALP formulations were administered by IV injection at 0.01 mg/kg, 0.03 mg/kg, or 0.1 mg/kg into female Balb/c mice (n=3 per group). Liver ApoB mRNA levels were evaluated at 48 hours after SNALP administration.
1:57 SNALP formulations containing encapsulated APOB siRNA at a 6:1 lipid:drug (L:D) ratio were prepared with the following cationic lipids: (1) DLinDMA; (2) Linoleyl/Linolenyl DMA (“Lin/LenDMA”); (3) DPanDMA; (4) TLinDMA; (5) Linoleyl/C6:0 DMA (“Lin/6:0”); (6) C2-DPanDMA; (7) DLin-C2K-Pip (30H); and (8) DHep-C2K-DMA.
(§1) Each SNALP formulation was administered by intravenous (IV) injection at 0.1 mg/kg into female Balb/c mice (n=3 per group). Livers were colleted at 48 hours after SNALP administration and liver ApoB mRNA levels were evaluated by performing an ApoB/GAPDH QG assay. Table 2 provides a characterization of the SNALP formulations used in this in vivo study.
In another study, 1:57 SNALP formulations containing encapsulated APOB siRNA at a 6:1 L:D ratio were prepared with the following cationic lipids: (1) DLinDMA; (2) C2-DPanDMA; (3) DPan-C2K-DMA; (4) DPan-C3K-DMA; and (5) DPan-C1K6-DMA.
as §1, with “3” for “2”
For dose response studies, SNALP formulations were administered by IV injection at 0.01 mg/kg, 0.033 mg/kg, or 0.1 mg/kg into female Balb/c mice (n=3 per group). Liver ApoB mRNA levels were evaluated at 48 hours after SNALP administration by a branched DNA assay (QuantiGene assay) to assess ApoB mRNA relative to the housekeeping gene GAPDH.

[2] = TNS assay, apparent pKa of cationic lipid in 1:57 SNALP; conditions: 1:57 SNALP formulation containing encapsulated APOB siRNA
Method: 1:57 SNALP formulations containing encapsulated APOB siRNA were prepared as described in Section VI above with the following cationic lipids: (1) DLinDMA; (2) DLenDMA; (3) γ-DLenDMA (“g-DLenDMA”); (4) C2-DLinDAP; (5) DLinPip (4-OH); (6) DLinPip; (7) DLinPip (3-OH); (8) DLinDEA; (9) DDocDMA; (10) DAraDMA; (11) TLinDMA; (12) DLin-C2K Pip (30H); (13) DHep-C2K-DMA; (14) DPanDMA; (15) C2-DPanDMA (“DPan-C2-DMA”); (16) DPan-C2K-DMA; (17) DPan-C3K-DMA; (18) DPan-K6-DMA (“DPan-C1K6-DMA”); and (19) C2-TLinDMA.
The apparent pKa of the cationic lipids present in these SNALP formulations was determined using a 2-(p-toluidinyl)-naphthalene-6-sodium sulfonate (TNS) assay. TNS is a negatively-charged indicator of membrane potential that is electrostatically attracted to positively charged membranes (see, Bailey and Cullis, Biochemistry, 33 12573-80 (1994)). Subsequent adsorption to the lipid membrane results in the immediate environment of the TNS becoming more lipophilic, removing the water molecules that otherwise quench TNS fluorescence. As a result, TNS measures the surface potential of the particle, wherein the more positive the surface potential, the greater the level of fluorescence. The surface pKa values of each SNALP formulation were determined by varying the local pH in the presence of TNS. By plotting fluorescence versus pH, the pKa of the cationic lipid can be estimated in the particle as the pH where fluorescence equals 50% of total fluorescence.

[3] = test system: ApoB mRNA in ApoE−/− primary hepatocytes; experiment: ApoB silencing in ApoE−/− primary hepatocytes after serum pre-incubation of SNALP; format: cell-based, mouse; conditions: FIGS. 12-14; 1:57 SNALP pre-incubated with C57 or ApoE−/− serum, 40-0.625 nM siRNA on hepatocytes, 24 hr
Method: ApoE−/− primary hepatocytes were isolated and plated at 2.5×10^4 cells/well. Each SNALP formulation was pre-incubated with 50% C57 (ApoE-containing) serum or ApoE−/− serum at siRNA concentrations of 4000-62.5 nM for 1 hr at 37° C. Samples were then diluted to 40-0.625 nM on the hepatocytes for 24 hr. After 24 hr, cells were lysed and ApoB and GAPD mRNA levels were measured via bDNA (QG) assay.

[4] = Tolerability of 1:57 SNALP, liver enzyme levels; format: in vivo, mouse; conditions: FIG. 7, single IV bolus 10, 15 or 20 mg/kg, Balb/c mice, 48 hours post-injection, vs PBS control
Method: The tolerability of the 1:57 γ-DLenDMA SNALP formulation was evaluated with a single IV bolus injection of SNALP at either 10 mg/kg, 15 mg/kg, or 20 mg/kg in Balb/c mice (n=3 per group). Liver enzyme levels were measured at 48 hours post-injection.

[5] = Characterization of SNALP formulations (size, polydispersity, encapsulation); format: physicochemical; conditions: Table 5; for Initial Encaps. (%): 7:54 SNALP (PEG750-C-DMA 6.76 | cationic 54.06 | Chol 32.43 | DPPC 6.75 mol %) with PLK-1 siRNA; for Finished Product Encaps. (%) / Finished Product Poly / Finished Product Z-Avg (nm): 7:54 SNALP with PLK-1 siRNA
Method: In the context of nucleic acids, full encapsulation may be determined by performing a membrane-impermeable fluorescent dye exclusion assay, which uses a dye that has enhanced fluorescence when associated with nucleic acid. Specific dyes such as OliGreen® and RiboGreen® (Invitrogen Corp.; Carlsbad, Calif.) are available for the quantitative determination of plasmid DNA, single-stranded deoxyribonucleotides, and/or single- or double-stranded ribonucleotides. Encapsulation is determined by adding the dye to a liposomal formulation, measuring the resulting fluorescence, and comparing it to the fluorescence observed upon addition of a small amount of nonionic detergent. Detergent-mediated disruption of the liposomal bilayer releases the encapsulated nucleic acid, allowing it to interact with the membrane-impermeable dye. Nucleic acid encapsulation may be calculated as E=(Io−I)Io, where I and Io refer to the fluorescence intensities before and after the addition of detergent (see, Wheeler et al., Gene Ther., 6:271-281 (1999)). […]
Each SNALP formulation was administered by intravenous (IV) injection at 3 mg/kg into Scid mice containing Hep3B tumors (n=4 per group). Tumor tissue was colleted at 24 hours after SNALP administration and tumor PLK-1 mRNA levels were evaluated by performing a PLK-1/GAPDH QG assay. Table 5 provides a characterization of the SNALP formulations used in this in vivo study.

[6] = Example 16, FIG. 8, 1:57 SNALP, female Balb/c mice, 48 hours, ApoB/GAPDH QG assay
[7] = Example 16 second study, FIG. 9, 1:57 SNALP, female Balb/c mice, 48 hours

SMILES: CCCCC/C=C\C/C=C\CCCCCCCCOCC(COCC(CCN(C)C)OCCCCCCCC/C=C\C/C=C\CCCCC)OCCCCCCCC/C=C\C/C=C\CCCCC (stereo not drawn) [Compound C2-TLinDMA]
- ApoB knockdown [1]: 49%
- pKa [2]: ~5.85

SMILES: CCCCC/C=C\C/C=C\C/C=C\C/C=C\CCCCOCC(CN(C)C)OCCCC/C=C\C/C=C\C/C=C\C/C=C\CCCCC (stereo not drawn) [DAraDMA, 1,2-Diarachidonyloxy-(N,N-dimethyl)-propyl-3-amine]
- pKa [2]: ~5.65

SMILES: CC/C=C\C/C=C\C/C=C\C/C=C\C/C=C\C/C=C\CCCOCC(CN(C)C)OCCC/C=C\C/C=C\C/C=C\C/C=C\C/C=C\C/C=C\CC (stereo not drawn) [DDocDMA, 1,2-Didocosahexaenyloxy-(N,N-dimethyl)-propyl-3-amine]
- pKa [2]: ~5.65

SMILES: CCCCCCCC/C=C/CCCCCCCC1(CCCCCCC/C=C/CCCCCCCC)OCC(CCN(C)C)O1 (stereo not drawn) [DHep-C2K-DMA]
- ApoB silencing activity (liver ApoB mRNA) [1, 6]: comparable to DLinDMA with respect to silencing activity
- pKa [2]: ~6.05

SMILES: CC/C=C\C/C=C\C/C=C\CCCCCCCCC1(CCCCCCCC/C=C\C/C=C\C/C=C\CC)OCC(CCN(C)C)O1 (stereo not drawn) [DLen-C2K-DMA]
- liver ApoB mRNA knockdown activity ([1]; Example 17, FIG. 10, 1:57 SNALP, IV 0.01, 0.033 or 0.1 mg/kg, female Balb/c mice, 48 hours, QuantiGene assay vs GAPDH): considerable potency in silencing ApoB mRNA expression

SMILES: CC/C=C\C/C=C\C/C=C\CCCCCCCCOCC(CN(C)C)OCCCCCCCC/C=C\C/C=C\C/C=C\CC (stereo not drawn) [DLenDMA, 1,2-dilinolenyloxy-N,N-dimethylaminopropane, reference compound]
- ApoB silencing activity and its dependence on ApoE [3]: greatest levels of silencing activity when ApoE-containing serum was present
- liver enzyme levels [4]: did not significantly elevate liver enzyme levels

SMILES: CCCCC/C=C\C/C=C\CCCCCCCCC1(CCCCCCCC/C=C\C/C=C\CCCCC)OCC(CN(C)C)O1 (stereo not drawn) [DLin-C1K-DMA, reference compound]
- Initial Encaps. (%) [5]: 56%
- Finished Product Encaps. (%) [5]: 98%
- Finished Product Poly [5]: 0.05
- Finished Product Z-Avg (nm) [5]: 84 nm

SMILES: CCCCC/C=C\C/C=C\CCCCCCCCC1(CCCCCCCC/C=C\C/C=C\CCCCC)OCC(CCN2CCCC(O)C2)O1 (stereo not drawn) [DLin-C2K Pip (30H)]
- pKa [2]: ~6.05

SMILES: CCCCC/C=C\C/C=C\CCCCCCCCC1(CCCCCCCC/C=C\C/C=C\CCCCC)OCC(CCCN(C)C)O1 (stereo not drawn) [DLin-C3K-DMA]
- ApoB silencing activity and its dependence on ApoE [3]: less dependent on ApoE compared to other formulations tested

SMILES: CCCCCC=CCC=CCCCCCCCCC1(CCCCCCCC/C=C\C/C=C\CCCCC)OCC(CCCCN(C)C)O1 (stereo not drawn) [DLin-C4K-DMA]
- ApoB silencing activity and its dependence on ApoE [3]: less dependent on ApoE compared to other formulations tested

SMILES: CCCCC/C=C\C/C=C\CCCCCCCCOCC(CN(C)C)OCCCCCCCC/C=C\C/C=C\CCCCC (stereo not drawn) [DLinDMA, 1,2-dilinoleyloxy-N,N-dimethylaminopropane, reference compound]
- ApoB knockdown [1]: 25%
- Initial Encaps. (%) [5]: 75%
- Finished Product Encaps. (%) [5]: 98%
- Finished Product Poly [5]: 0.08
- Finished Product Z-Avg (nm) [5]: 74 nm

SMILES: CC(C)CCCC(C)CCCC(C)CCCC(C)CCC1(CCC(C)CCCC(C)CCCC(C)CCCC(C)C)OCC(CN(C)C)CO1 (stereo not drawn) [DPan-C1K6-DMA]
- pKa [2]: ~5.5
- Initial Encaps. (%) [5]: 71%
- Finished Product Encaps. (%) [5]: 99%
- Finished Product Poly [5]: 0.06
- Finished Product Z-Avg (nm) [5]: 80 nm

SMILES: CC(C)CCCC(C)CCCC(C)CCCC(C)CCC1(CCC(C)CCCC(C)CCCC(C)CCCC(C)C)OCC(CCN(C)C)O1 (stereo not drawn) [DPan-C2K-DMA]
- ApoB silencing activity (liver ApoB mRNA) [1, 7]: more potent compared to DLinDMA
- pKa [2]: ~5.95
- Initial Encaps. (%) [5]: 84%
- Finished Product Encaps. (%) [5]: 100%
- Finished Product Poly [5]: 0.08
- Finished Product Z-Avg (nm) [5]: 76 nm

SMILES: CC(C)CCCC(C)CCCC(C)CCCC(C)CCC1(CCC(C)CCCC(C)CCCC(C)CCCC(C)C)OCC(CCCN(C)C)O1 (stereo not drawn) [DPan-C3K-DMA]
- ApoB silencing activity (liver ApoB mRNA) [1, 7]: more potent compared to DLinDMA
- pKa [2]: ~6.25
- Initial Encaps. (%) [5]: 86%
- Finished Product Encaps. (%) [5]: 100%
- Finished Product Poly [5]: 0.06
- Finished Product Z-Avg (nm) [5]: 81 nm

SMILES: CC/C=C\C/C=C\C/C=C\CCCCCCCCOC(COCCCCCCCC/C=C\C/C=C\CCCCC)CN(C)C (stereo not drawn) [Linoleyl/Linolenyl DMA]
- liver ApoB mRNA knockdown activity (silencing ApoB expression) ([1]; Example 14, FIGS. 3-6, 1:57 SNALP with APOB siRNA, IV 0.1 mg/kg (dose response 0.01, 0.03, 0.1 mg/kg), female Balb/c mice, 48 hours): greater ApoB silencing activity compared to a SNALP formulation containing DLinDMA
- ApoB silencing activity (liver ApoB mRNA) [1, 6]: more potent silencing activity than DLinDMA

SMILES: CCCCC/C=C\C/C=C\CCCCCCCCOCC(COCC(CN(C)C)OCCCCCCCC/C=C\C/C=C\CCCCC)OCCCCCCCC/C=C\C/C=C\CCCCC (stereo not drawn) [TLinDMA, 1-(2,3-linoleyloxypropoxy)-2-(linoleyloxy)-(N,N-dimethyl)-propyl-3-amine]
- ApoB silencing activity (liver ApoB mRNA) [1, 6]: silencing activity that was comparable to DLinDMA
- pKa [2]: ~5.35
- Initial Encaps. (%) [5]: 70%
- Finished Product Encaps. (%) [5]: 100%
- Finished Product Poly [5]: 0.07
- Finished Product Z-Avg (nm) [5]: 126 nm

SMILES: CCCCC/C=C\C/C=C\C/C=C\CCCCCC1(CCCCC/C=C\C/C=C\C/C=C\CCCCC)OCC(CCN(C)C)O1 (stereo not drawn) [g-DLen-C2K-DMA]
- KD50 value ([1]; Example 17, FIG. 10, liver ApoB mRNA knockdown dose response): identical KD50 value compared to a SNALP formulation containing C2K

SMILES: CCCCC/C=C\C/C=C\C/C=C\CCCCCOCC(CN(C)C)OCCCCC/C=C\C/C=C\C/C=C\CCCCC (stereo not drawn) [γ-DLenDMA, 1,2-Di-γ-linolenyloxy-N,N-dimethylaminopropane]
- liver enzyme levels [4]: did not significantly elevate liver enzyme levels

From US9018187B2, “Cationic lipids and methods for the delivery of therapeutic agents” (Protiva Biotherapeutics, Inc., priority 2009, dated 2015)
